The record followed here is patent US20240024488A1, “COMPOUNDS AND USES THEREOF” (Foghorn Therapeutics Inc., priority 2020, published 2024).

One test has as its target T1, HiBit-BRM fusion protein (Homo sapiens, UniProt P51531).
T1 construct: expressed in transfected cells
Kind of test: HiBiT-BRM cell-based degradation assay (Nano-Glo HiBiT Lytic Detection, 24 h). The following applies: HeLa cell line expressing HiBiT-BRM; for DC50: read-out: BRM HiBit Degradation IC50. The method, boiled down: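 HeLa cells stably expressing HiBiT-BRM were treated for 24 h with compounds (10-point 3-fold dilutions, 30 μM final top dose, in duplicate). HiBiT was detected by lytic LgBiT complementation luminescence. % degradation was normalized to DMSO (high control) and 2 μM of a reference BRM/BRG1 degrader (low control).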

The target in test [1] is T2, HiBit-BRG1 fusion protein (Homo sapiens, UniProt P51532).
T2 construct: expressed in transfected cells
Kind of test: HiBiT-BRG1 cell-based degradation assay (Nano-Glo HiBiT Lytic Detection, 24 h). The following applies: HeLa cell line expressing HiBit-BRG1 and LgBit, read-out: BRG1 HiBit Degradation Maximum (%). The method, boiled down: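 Luminescence from Nano-Glo HiBiT lytic detection, read after 24 h compound exposure, scored degradation in a stable HeLa HiBiT-BRG1/LgBit line seeded at 5000 cells/well. DMSO wells defined 0% and 2 μM known BRM/BRG1 degrader wells defined full degradation.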

T1 sequence (P51531 whole entry, the tested form may be a part): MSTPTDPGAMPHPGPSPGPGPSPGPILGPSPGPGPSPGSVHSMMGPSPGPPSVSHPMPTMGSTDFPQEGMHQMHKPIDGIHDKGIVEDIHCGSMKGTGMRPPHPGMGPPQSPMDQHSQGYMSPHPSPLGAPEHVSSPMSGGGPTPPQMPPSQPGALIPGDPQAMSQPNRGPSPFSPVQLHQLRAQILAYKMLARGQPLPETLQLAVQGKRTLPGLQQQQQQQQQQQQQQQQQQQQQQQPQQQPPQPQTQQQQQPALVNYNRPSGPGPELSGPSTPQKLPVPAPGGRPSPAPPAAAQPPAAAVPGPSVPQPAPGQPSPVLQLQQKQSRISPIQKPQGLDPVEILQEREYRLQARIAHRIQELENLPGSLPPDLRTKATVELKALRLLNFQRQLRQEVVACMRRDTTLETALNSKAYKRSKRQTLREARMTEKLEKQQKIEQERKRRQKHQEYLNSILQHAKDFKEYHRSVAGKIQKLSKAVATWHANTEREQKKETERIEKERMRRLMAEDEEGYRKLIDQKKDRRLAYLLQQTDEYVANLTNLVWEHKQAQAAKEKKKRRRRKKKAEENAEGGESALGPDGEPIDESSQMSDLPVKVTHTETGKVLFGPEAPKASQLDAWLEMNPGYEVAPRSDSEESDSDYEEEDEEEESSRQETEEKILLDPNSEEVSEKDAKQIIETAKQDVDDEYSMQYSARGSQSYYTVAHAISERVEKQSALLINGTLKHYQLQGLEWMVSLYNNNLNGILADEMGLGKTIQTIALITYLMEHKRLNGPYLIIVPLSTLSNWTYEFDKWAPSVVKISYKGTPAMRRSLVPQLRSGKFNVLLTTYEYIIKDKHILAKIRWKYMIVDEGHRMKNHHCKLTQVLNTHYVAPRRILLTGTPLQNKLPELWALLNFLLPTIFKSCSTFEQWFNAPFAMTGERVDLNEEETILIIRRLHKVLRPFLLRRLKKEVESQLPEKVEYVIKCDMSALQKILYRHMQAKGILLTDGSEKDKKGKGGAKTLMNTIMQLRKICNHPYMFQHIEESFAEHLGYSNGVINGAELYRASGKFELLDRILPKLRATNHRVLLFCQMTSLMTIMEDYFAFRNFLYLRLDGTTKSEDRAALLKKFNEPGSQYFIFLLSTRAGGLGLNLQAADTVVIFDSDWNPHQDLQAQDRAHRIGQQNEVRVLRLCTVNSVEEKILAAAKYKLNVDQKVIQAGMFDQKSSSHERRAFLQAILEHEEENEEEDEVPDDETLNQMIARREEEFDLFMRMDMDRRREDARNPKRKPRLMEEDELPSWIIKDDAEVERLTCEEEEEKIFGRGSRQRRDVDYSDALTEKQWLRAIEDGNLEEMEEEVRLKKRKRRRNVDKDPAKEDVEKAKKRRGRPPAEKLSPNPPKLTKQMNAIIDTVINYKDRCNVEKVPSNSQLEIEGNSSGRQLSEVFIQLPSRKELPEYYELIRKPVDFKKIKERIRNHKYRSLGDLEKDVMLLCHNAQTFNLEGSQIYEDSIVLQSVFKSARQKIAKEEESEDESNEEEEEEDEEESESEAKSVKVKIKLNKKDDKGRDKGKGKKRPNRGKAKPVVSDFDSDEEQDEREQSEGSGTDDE
T2 sequence (P51532 whole entry, the tested form may be a part): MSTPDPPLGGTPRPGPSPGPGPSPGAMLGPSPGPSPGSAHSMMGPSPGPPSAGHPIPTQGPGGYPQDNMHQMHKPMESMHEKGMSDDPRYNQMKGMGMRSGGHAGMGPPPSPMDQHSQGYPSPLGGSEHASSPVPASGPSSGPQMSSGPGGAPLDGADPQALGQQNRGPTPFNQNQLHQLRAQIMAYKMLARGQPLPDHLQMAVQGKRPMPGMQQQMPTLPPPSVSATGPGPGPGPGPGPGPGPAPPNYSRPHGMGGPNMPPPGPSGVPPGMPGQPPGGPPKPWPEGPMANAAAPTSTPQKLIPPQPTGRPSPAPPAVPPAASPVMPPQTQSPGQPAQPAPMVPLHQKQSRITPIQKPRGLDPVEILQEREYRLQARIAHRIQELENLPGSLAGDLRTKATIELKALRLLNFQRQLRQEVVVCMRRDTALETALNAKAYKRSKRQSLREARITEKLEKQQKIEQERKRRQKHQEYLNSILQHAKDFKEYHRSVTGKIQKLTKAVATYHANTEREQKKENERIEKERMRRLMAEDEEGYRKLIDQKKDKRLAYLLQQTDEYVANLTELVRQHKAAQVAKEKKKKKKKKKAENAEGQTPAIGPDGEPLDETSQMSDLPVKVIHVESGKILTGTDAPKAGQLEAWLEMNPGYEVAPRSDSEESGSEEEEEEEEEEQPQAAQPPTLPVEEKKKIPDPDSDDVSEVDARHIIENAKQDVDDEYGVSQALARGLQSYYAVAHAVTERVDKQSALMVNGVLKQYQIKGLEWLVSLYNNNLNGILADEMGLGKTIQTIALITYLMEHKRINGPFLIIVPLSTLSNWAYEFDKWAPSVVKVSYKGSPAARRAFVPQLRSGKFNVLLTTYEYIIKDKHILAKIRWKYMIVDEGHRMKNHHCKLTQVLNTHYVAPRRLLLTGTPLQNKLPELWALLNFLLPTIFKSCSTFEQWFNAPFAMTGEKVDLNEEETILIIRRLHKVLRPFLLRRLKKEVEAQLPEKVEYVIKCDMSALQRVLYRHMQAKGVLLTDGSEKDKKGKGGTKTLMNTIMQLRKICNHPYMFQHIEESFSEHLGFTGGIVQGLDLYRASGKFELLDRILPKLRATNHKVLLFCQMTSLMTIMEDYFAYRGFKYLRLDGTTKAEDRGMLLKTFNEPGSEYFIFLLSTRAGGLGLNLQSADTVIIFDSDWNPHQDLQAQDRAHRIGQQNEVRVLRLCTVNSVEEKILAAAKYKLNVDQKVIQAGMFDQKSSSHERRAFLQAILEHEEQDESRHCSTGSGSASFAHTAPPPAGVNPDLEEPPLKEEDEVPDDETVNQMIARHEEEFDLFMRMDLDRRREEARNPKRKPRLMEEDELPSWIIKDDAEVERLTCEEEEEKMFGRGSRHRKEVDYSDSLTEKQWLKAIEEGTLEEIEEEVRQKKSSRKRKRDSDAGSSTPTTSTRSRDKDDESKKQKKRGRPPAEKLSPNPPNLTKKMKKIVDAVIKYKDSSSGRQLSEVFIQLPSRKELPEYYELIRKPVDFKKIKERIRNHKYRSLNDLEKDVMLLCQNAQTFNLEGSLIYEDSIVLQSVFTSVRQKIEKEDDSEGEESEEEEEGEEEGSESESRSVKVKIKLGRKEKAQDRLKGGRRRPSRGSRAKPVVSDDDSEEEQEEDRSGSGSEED

In the case of `Cc1ncsc1-c1ccc([C@H](C)NC(=O)[C@@H]2C[C@@H](O)CN2C(=O)[C@@H](c2cc(OCCCN3C[C@@H]4[C@H](C3)[C@H]4c3cc4cc(-c5ccccc5O)nnc4[nH]3)no2)C(C)C)cc1` (racemic) [Compound 216, (2S,4R)-4-hydroxy-1-((R)-2-(3-(3-((1R,5S,6R)-6-(3-(2-hydroxyphenyl)-7H-pyrrolo[2,3-c]pyridazin-6-yl)-3-azabicyclo[3.1.0]hexan-3-yl)propoxy)isoxazol-5-yl)-3-methylbutanoyl)-N-((S)-1-(4-(4-methylthiazol-5-yl)phenyl)ethyl)pyrrolidine-2-carboxamide], at HiBit-BRM fusion protein, the “BRM HiBit Degradation Maximum (%)” value is “A (“A” indicates maximum degradation ≥ 75%)” and the DC50 was above 100 nM. Besides, the Dmax in test [1] is below 50%.
Regarding `Cc1ncsc1-c1ccc([C@H](C)NC(=O)[C@@H]2C[C@@H](O)CN2C(=O)[C@@H](c2cc(C3CCN(C(=O)[C@H]4C[C@@]5(Cc6cc(-c7ccccc7O)nnc6N5)C4)CC3)no2)C(C)C)cc1` (racemic) [Compound 69, (2S,4R)-4-hydroxy-1-((R)-2-(3-(1-((1R,3s)-3′-(2-hydroxyphenyl)-5′,7′-dihydrospiro[cyclobutane-1,6′-pyrrolo[2,3-c]pyridazine]-3-carbonyl)piperidin-4-yl)isoxazol-5-yl)-3-methylbutanoyl)-N-((S)-1-(4-(4-methylthiazol-5-yl)phenyl)ethyl)pyrrolidine-2-carboxamide], at HiBit-BRM fusion protein, the “BRM HiBit Degradation Maximum (%)” value is reported as “A (“A” indicates maximum degradation ≥ 75%)” and the DC50 is above 10 nM. Also, in test [1], the Dmax was below 50%.
`Cc1ncsc1-c1ccc([C@H](C)NC(=O)[C@@H]2C[C@@H](O)CN2C(=O)[C@H](c2cc(OCCCN3C[C@@H]4[C@H](C3)[C@H]4c3cc4cc(-c5ccccc5O)nnc4[nH]3)no2)C(C)C)cc1` (racemic) [Compound 215, (2S,4R)-4-hydroxy-1-((S)-2-(3-(3-((1R,5S,6S)-6-(3-(2-hydroxyphenyl)-7H-pyrrolo[2,3-c]pyridazin-6-yl)-3-azabicyclo[3.1.0]hexan-3-yl)propoxy)isoxazol-5-yl)-3-methylbutanoyl)-N-((S)-1-(4-(4-methylthiazol-5-yl)phenyl)ethyl)pyrrolidine-2-carboxamide]: the “BRM HiBit Degradation Maximum (%)” value on HiBit-BRM fusion protein is on record as “C (“C” indicates maximum degradation < 50%)”. The Dmax in test [1] is below 50%.
For the compound `Cc1ncsc1-c1ccc(CNC(=O)[C@@H]2C[C@@H](O)CN2C(=O)[C@@H](NC(=O)CCCCC(=O)N[C@H]2CCc3[nH]c4nnc(-c5ccccc5O)cc4c3C2)C(C)(C)C)cc1` (relative stereo) [Compound 175, N1-((S)-1-((2S,4R)-4-hydroxy-2-((4-(4-methylthiazol-5-yl)benzyl)carbamoyl)pyrrolidin-1-yl)-3,3-dimethyl-1-oxobutan-2-yl)-N6-((S)-3-(2-hydroxyphenyl)-6,7,8,9-tetrahydro-5H-pyridazino[3,4-b]indol-6-yl)adipamide], at HiBit-BRM fusion protein, the “BRM HiBit Degradation Maximum (%)” value is “A (“A” indicates maximum degradation ≥ 75%)” and the DC50 is above 1000 nM. In addition, the Dmax in test [1] was below 50%.
Consider `Cc1ncsc1-c1ccc(CNC(=O)[C@@H]2C[C@@H](O)CN2C(=O)[C@@H](NC(=O)CCCCC(=O)N2CC(c3cc4cc(-c5ccccc5O)nnc4[nH]3)C2)C(C)(C)C)cc1` [Compound 18, (2S,4R)-4-hydroxy-1-((S)-2-(6-(3-(3-(2-hydroxyphenyl)-7H-pyrrolo[2,3-c]pyridazin-6-yl)azetidin-1-yl)-6-oxohexanamido)-3,3-dimethylbutanoyl)-N-(4-(4-methylthiazol-5-yl)benzyl)pyrrolidine-2-carboxamide], for which the “BRM HiBit Degradation Maximum (%)” value at HiBit-BRM fusion protein is listed as “C (“C” indicates maximum degradation < 50%)”. The Dmax in test [1] is below 50%.
